Laboratory results: patent US20240003908A1, “POLYOL BIOMARKERS FOR CONGENITAL DISORDERS OF GLYCOSYLATION” (Mayo Foundation for Medical Education and Research, priority 2020, published 2024)

Test system: PMM-deficient fibroblasts
Assay: Glycoproteomics of PMM-deficient fibroblasts treated with epalrestat or vehicle
Type: cell-based, human
Excerpt: Proteomics and glycoproteomics: Cell were scraped in PBS, pH 7.4 and sonicated with a tip sonicator at 40% amplitude for 3 cycles of 10 seconds each. Equal amount of proteins were digested with trypsin as described elsewhere (Mun et al., Anal Chem 92:14466-14475, 2020). The digested peptides were labeled with tandem mass tag (TMT) reagents as per the manufacturer's instructions (ThermoFisher). Labelled samples were pooled, and either size-exclusion chromatography or basic pH reversed-phase fractionation was performed. An aliquot of dried peptides was resuspended in 100 μL of 0.1% formic acid and injected into Superdex peptide 10/300 column (GE Healthcare). Twenty-one (21) early fractions were collected starting at 10 minutes after injection (total run time of 130 minutes) and analyzed by LC-MS/MS as described elsewhere (Mun et al., supra). Another aliquot of total peptides was cleaned up by C18 TopTips (Glygen) and fractionated by bRPLC on a reversed phase C18 column (4.6×100 mm column). Twelve (12) fractions were dried and re-suspended in 0.1% formic acid for LC-MS/MS analysis.
A modification of the LC-MS/MS parameters described by Mun et al. (supra) were used. Specifically, 21 early fractions from SEC and 12 fractions of bRPLC were analyzed by Orbitrap Exploris480 mass spectrometer (Thermo Fisher Scientific) coupled to an EASY-Spray column (Thermo Fisher Scientific). Every run was 130 minutes with a flow rate of 300 nL/minute. The gradient used for separation was: equilibration at 3% solvent B from 0 to 4 minutes, 3% to 10% sol B from 4 to 10 minutes, 10% to 35% sol B from 10.1 to 125 minutes, and 35% to 80% sol B from […]. All experiments were done in DDA mode with the top 15 ions isolated at a window of 0.7 m/z and a default charge state of +2. Charge states ranging from +2 to +7 were considered for MS/MS events. Stepped collision energy was applied to precursors at normalized collision energies of 15, 25, and 40. The MS precursor mass range was set to 375 to 2000 m/z and 100 to 2000 for MS/MS. The automatic gain control for MS and MS/MS were 1×10^6 and 1×10^5 and the injection times to reach AGC were 50 ms and 250 ms, respectively. 60 second dynamic exclusion was applied. Data acquisition was performed with the option of Lock mass (441.1200025 m/z) for all data.
Database searching and analysis: The publicly available software pGlyco Version 2.2.0 was used (Zeng et al., Sci Rep 6:25102, 2016; and Liu et al., Nat Commun 8:438, 2017). A glycan database containing 8,092 entries and Uniprot Human Reviewed protein sequences (20,432 entries) were used as protein sequence fasta files. Cleavage specificity was set to fully tryptic with 2 missed cleavages, and precursor and fragment tolerance were set to 5 and 20 ppm. […] Reporter ion quantification was performed in Proteome Discoverer 2.5 using “reporter ion quantifier” node and Ids were matched with quantitation on a scan-to-scan basis (MS/MS). […]
To compare responders (patients who had more than a 20% increase in enzyme activity after epalrestat treatment) to non-responders (patients who had less than a 20% increase in enzyme activity after epalrestat treatment) and gauge the increase in glycosylation upon epalrestat treatment, linear fold changes (treated/untreated) were calculated for each of these 412 glycopeptides. The fold changes of non-responders were subtracted from the fold changes of the responders, and the fold change difference (delta fold change) was calculated. […]

SMILES: CC(/C=C1\SC(=S)N(CC(=O)O)C1=O)=C\c1ccccc1 [epalrestat]
- share of reduced glycopeptides improved post-treatment (665 of 1,448): 46%
- improved glycopeptides that had reduced glycosylation in PMM-deficient fibroblasts compared to controls (among the 412 improved): 97 glycopeptides
- number of glycopeptides improved post-treatment, becoming similar to controls (of 1,448 reduced in untreated PMM-deficient fibroblasts): 665 glycopeptides
- number of glycopeptides with differential (enhanced) abundance after epalrestat (paired epalrestat vs vehicle): 412 glycopeptides
- ICAM-1 Asn267 glycopeptide (Hex7HexNAc6NeuAc2Fuc5) increase in abundance (paired epalrestat vs. vehicle analysis): 10%
